US10046050B2, “Targeting immunotherapy for amyloidosis” (UNIVERSITY OF TENNESSEE RESEARCH FOUNDATION, priority 2014, dated 2018)

Key:
AA amyloid = target: T1, AA amyloid (Mus musculus, UniProt P05367); test: In vivo binding of ^125I-p66 in AA mice (microautoradiography, SPECT/CT, biodistribution)
T1 construct: from tissue; host or cells: organs of living H2-L^d-huIL-6 Tg Balb/c mice after AEF injection
T1 sequence (P05367 20-94 limits assumed): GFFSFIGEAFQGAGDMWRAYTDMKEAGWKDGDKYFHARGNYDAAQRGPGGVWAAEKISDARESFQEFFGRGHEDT
Procedure: Systemic visceral AA amyloidosis was induced in H2-L^d-huIL-6 Tg Balb/c transgenic mice that constitutively express the human interleukin-6 transgene, by iv injection of 10 μg of purified, splenic AA amyloid (amyloid enhancing factor; AEF) in 100 μL of sterile phosphate-buffered saline (PBS). Peptide p66 was evaluated in mice at 4-6 wk post AEF injection when amyloid load was significant.
Imaging was performed using WT or AA amyloid mice (n=3) that were injected with ˜5 μg of ^125I-p66, 125 μCi in the lateral tail vein. After the appropriate uptake time (data for 4 and 72 h pi shown), mice were euthanized by isoflurane inhalation overdose. SPECT images were acquired using an Inveon trimodality imaging platform (Siemens Preclinical Solution, Knoxville, Tenn.) running Inveon Acquisition Workplace software (ver. 2.0). Low energy (^125I; 25-45 keV) gamma photons were acquired at each of 60, 16-sec projections with 90 mm of bed travel. […]
Samples of liver, spleen, pancreas, kidneys, small and large intestines, stomach and heart were harvested post mortem from every mouse undergoing imaging with ^125I-p66. A sample of each was placed into a tared, plastic vial, weighed and the ^125I radioactivity measured using an automated Wizard 3 gamma counter (1480 Wallac Gamma Counter, Perkin Elmer). The biodistribution data were expressed as % injected dose/g tissue (% ID/g). […]

[1] = test system: synthetic and naturally-occurring amyloid samples; test: Pull down assay of ^125I-labeled peptides; format: binding
Procedure: To evaluate the binding of p66 and p5+14 to synthetic and naturally-occurring amyloid, peptides p66 or p5+14 were radiolabeled with iodine-125 (I-125, ^125I) using oxidation with chloramine T (1 mg/ml in water freshly made. Free 1-125 was removed from the reaction mixture by size exclusion chromatography using a Sephadex G-25 solid phase and a 0.1% (w/v) gelatin in PBS mobile phase. Fractions of ˜250 μl were collected and the radioactivity in each measured using a gamma counter (Packard Cobra II auto-gamma counter). Peptide fractions with peak radioactivity were pooled and used for the “pull-down” assays.
For the pull down assay, ^125I-labeled peptide binding to murine: (m) AA and wild type (WT) liver homogenates (25 μl); rVλ6Wil (AL), Aβ(1-40) and islet amyloid polypeptide (IAPP) synthetic fibrils (25 μg), and; transthyretin-associated (ATTR), ALκ4-Cab and ALλ1-Ship human amyloid extracts (50 μg). The ^125I-peptides were prepared in PBST (0.15 M NaCl) or PBST with 1 M NaCl. Ten μl (˜5 ng, ˜100,000 counts per min [cpm]) of the ^125I-peptide solution was added to each test sample in a 200 μl volume. The reaction mixtures were rotated for 1 h at RT, then centrifuged twice at 16,000×g for 10 min. After each step the supernatants were removed and collected in test tubes. The pellets, obtained following the second spin were resuspended in PBST. The radioactivity in both the supernatant and pellet samples were measured using a Packard Cobra II auto-gamma counter. The bound peptide, expressed as % total was calculated according to: Bound peptide (% total)=(Pellet cpm)/(Pellet cpm+Supernatant cpm)

human Tal ALκ amyloid = test: Immunohistochemistry of biotinyl-7D8 on formalin-fixed tissue sections; format: binding; details: kidney, label = pre-treatment peptide, or 7D8 alone
Procedure: (§1) The binding of biotinylated 7D8 mAb with autopsy-derived, formalin-fixed, paraffin-embedded tissue sections containing, ATTR, ALκ or ALλ was assessed immunohistochemically. Consecutive tissue sections were stained with: Congo red; biotinylated 7D8 alone; 7D8 with the control peptide p5; or, 7D8 mAb with peptope p75 pretreatment. Briefly, six μm-thick tissue sections were subjected to antigen retrieval by incubation in CitraPlus solution (BioGenex, San Ramon, Calif.) for 30 min at 90° C. Unlabeled peptope p75 was added to the tissue at ˜3 μg/mL and incubated overnight at 4° C. Unbound reagent was removed by washing in PBST for 30 min. Tissues sections (with or without peptope pretreatment) were immunostained by addition of 3 μg/mL biotinylated 7D8 mAb. Slides were developed by addition of streptavidin-HRP (Vectastain Elite ABC kit, Vector Labs) followed by 3,3′-diaminobezidene (Vector Labs) and examined using a Leica DM500 microscope.

human ATTR amyloid = test: as above; format: binding; details: label = pre-treatment peptide, or 7D8 alone
Procedure: as §1

human Den ALλ amyloid = test: as above; format: binding; details: thyroid, label = pre-treatment peptide, or 7D8 alone
Procedure: as §1

| time post injection at which amyloid in the liver could be readily visualized by SPECT imaging (AA amyloid; AA mice, ^125I-p66) | binding of radiolabeled peptide to amyloid deposits in vivo (AA amyloid; mice with systemic AA amyloidosis, iv, autoradiography vs Congo red) | binding of ^125I-peptide to amyloid samples ([1]; 0.15 M NaCl) | binding of ^125I-peptide to amyloid samples ([1]; 1.0 M NaCl) | Substance | immunohistochemical staining with biotinyl-7D8 (human Tal ALκ amyloid) | immunohistochemical staining with biotinyl-7D8 (human ATTR amyloid; Gre ATTR, esophagus) | immunohistochemical staining with biotinyl-7D8 (human ATTR amyloid; Gre ATTR, heart) | immunohistochemical staining with biotinyl-7D8 (human ATTR amyloid; Gre ATTR, nerve) | immunohistochemical staining with biotinyl-7D8 (human ATTR amyloid; Gre ATTR, small bowel) | immunohistochemical staining with biotinyl-7D8 (human ATTR amyloid; Ken ATTR, heart) | immunohistochemical staining with biotinyl-7D8 (human ATTR amyloid; Sno ATTR, heart) | immunohistochemical staining with biotinyl-7D8 (human Den ALλ amyloid) |
| --- | --- | --- | --- | --- | --- | --- | --- | --- | --- | --- | --- | --- |
| at least 72 h | specifically bound the amyloid deposits | bound equally well | bound equally well | KAQKAQAKQAKQAQKAQKAQAKQAKQAQKAQKAQAKQAKQ SVTVVT KHYAAFPENLLI [p66] | – | – | – | – | – | – | – | – |
| – | – | – | – | KAQKAQAKQAKQAQKAQKAQAKQAKQAQHEDT [p75, KAQKAQAKQAKQAQKAQKAQAKQAKQAQHEDT] | Specific positive staining | Specific positive staining | Specific positive staining | Specific positive staining | Specific positive staining | Specific positive staining | Specific positive staining | Specific positive staining |
